10 compounds from patent publication US8080556B2, “2-amino pyrimidine compounds as potent HSP-90 inhibitors” (Pfizer Inc., priority 2008, dated 2011) can be followed below.

This test has as its system Akt. Briefly: Akt Lum. Type of test: cell-based.
On to `Nc1nc2c(c(-c3c(Cl)cc(Cl)cc3OCCn3cc(Cl)cn3)n1)CN(C(=O)NC1CC1)C2` [Example 2, 2-amino-N-cyclopropyl-4-{2,4-dichloro-6-[2-(4-chloro-1H-pyrazol-1-yl)ethoxy]phenyl}-5,7-dihydro-6H-pyrrolo[3,4-d]pyrimidine-6-carboxamide], for which the IC50 (commonly the midpoint of a concentration-inhibition curve) is 104 nM.
Consider `Cc1cc(Cl)cc(OCCn2cccn2)c1-c1nc(N)nc2c1CN(C(=O)NC13CC(C1)C3)C2` [Example 3], for which the IC50 came out at 52.5 nM.
On to `Cc1cc(Cl)cc(OCCn2cc(F)cn2)c1-c1nc(N)nc2c1CN(C(=O)NC13CC(C1)C3)C2` [Example 7, 2-amino-N-bicyclo[1.1.1]pent-1-yl-4-{4-chloro-2-[2-(4-fluoro-1H-pyrazol-1-yl)ethoxy]-6-methylphenyl}-5,7-dihydro-6H-pyrrolo[3,4-d]pyrimidine-6-carboxamide], for which the IC50 stood at 20.9 nM.
For the compound `Nc1nc2c(c(-c3c(Cl)cc(Cl)cc3OCCn3cc(F)cn3)n1)CN(C(=O)NC1CC1)C2` [Example 10, 2-amino-N-cyclopropyl-4-{2,4-dichloro-6-[2-(4-fluoro-1H-pyrazol-1-yl)ethoxy]phenyl}-5,7-dihydro-6H-pyrrolo[3,4-d]pyrimidine-6-carboxamide], the IC50 came out at 111 nM.
For the compound `CC(F)(F)CNC(=O)N1Cc2nc(N)nc(-c3c(Cl)cc(Cl)cc3OCCn3cc(C#N)cn3)c2C1` [Example 11, 2-amino-4-{2,4-dichloro-6-[2-(4-cyano-1H-pyrazol-1-yl)ethoxy]phenyl}-N-(2,2-difluoropropyl)-5,7-dihydro-6H-pyrrolo[3,4-d]pyrimidine-6-carboxamide], the IC50 came out at 2550 nM.
`Nc1nc2c(c(-c3c(Cl)cc(Cl)cc3OCCn3cc(Br)cn3)n1)CN(C(=O)NC1CC1)C2` [Example 12, 2-amino-4-{2-[2-(4-bromo-1H-pyrazol-1-yl)ethoxy]-4,6-dichlorophenyl}-N-cyclopropyl-5,7-dihydro-6H-pyrrolo[3,4-d]pyrimidine-6-carboxamide] yielded a half-inhibitory concentration (IC50) of 175 nM.
As for `Nc1nc2c(c(-c3c(Cl)cc(Cl)cc3OCCn3ccc(C(F)(F)F)n3)n1)CN(C(=O)NC1CC1)C2` [Example 13, 2-amino-N-cyclopropyl-4-(2,4-dichloro-6-{2-[3-(trifluoromethyl)-1H-pyrazol-1-yl]ethoxy}phenyl)-5,7-dihydro-6H-pyrrolo[3,4-d]pyrimidine-6-carboxamide], the IC50 was found to be 660 nM.
Turning to `Nc1nc2c(c(-c3c(Cl)cc(Cl)cc3OCCn3nccc3C(F)(F)F)n1)CN(C(=O)NC1CC1)C2` [Example 14, 2-amino-N-cyclopropyl-4-(2,4-dichloro-6-{2-[5-(trifluoromethyl)-1H-pyrazol-1-yl]ethoxy}phenyl)-5,7-dihydro-6H-pyrrolo[3,4-d]pyrimidine-6-carboxamide], the IC50 was found to be 6690 nM.
The compound `Cc1cc(C(F)(F)F)n(CCOc2cc(Cl)cc(Cl)c2-c2nc(N)nc3c2CN(C(=O)NC2CC2)C3)n1` [Example 15, 2-amino-N-cyclopropyl-4-(2,4-dichloro-6-{2-[3-methyl-5-(trifluoromethyl)-1H-pyrazol-1-yl]ethoxy}phenyl)-5,7-dihydro-6H-pyrrolo[3,4-d]pyrimidine-6-carboxamide] came in with an IC50 of 18300 nM.
`Cc1cc(C(F)(F)F)nn1CCOc1cc(Cl)cc(Cl)c1-c1nc(N)nc2c1CN(C(=O)NC1CC1)C2` [Example 16, 2-amino-N-cyclopropyl-4-(2,4-dichloro-6-{2-[5-methyl-3-(trifluoromethyl)-1H-pyrazol-1-yl]ethoxy}phenyl)-5,7-dihydro-6H-pyrrolo[3,4-d]pyrimidine-6-carboxamide]: the IC50 was 9960 nM.
